Measured values taken from ChEMBL document CHEMBL1201862, “PubChem BioAssay data set” (2004).
Calls of active or inactive are those of the source.

Legend:
[1] = biological target: Glycogen synthase kinase-3 alpha (Homo sapiens, UniProt P49840); test: human GSK3 alpha kinase inhibition, dose response, selectivity assay for GSK3beta inhibitor project, biochemical, microfluidics, dry powder samples, set 2 (AID 623978); format: functional
[2] = biological target: Glycogen synthase kinase-3 beta (Homo sapiens, UniProt P49841); test: GSK3beta kinase inhibitors, dose response, biochemical, microfluidics, dry powder samples, set 2 (AID 623989); format: functional
Chain of Glycogen synthase kinase-3 beta (P49841 whole entry): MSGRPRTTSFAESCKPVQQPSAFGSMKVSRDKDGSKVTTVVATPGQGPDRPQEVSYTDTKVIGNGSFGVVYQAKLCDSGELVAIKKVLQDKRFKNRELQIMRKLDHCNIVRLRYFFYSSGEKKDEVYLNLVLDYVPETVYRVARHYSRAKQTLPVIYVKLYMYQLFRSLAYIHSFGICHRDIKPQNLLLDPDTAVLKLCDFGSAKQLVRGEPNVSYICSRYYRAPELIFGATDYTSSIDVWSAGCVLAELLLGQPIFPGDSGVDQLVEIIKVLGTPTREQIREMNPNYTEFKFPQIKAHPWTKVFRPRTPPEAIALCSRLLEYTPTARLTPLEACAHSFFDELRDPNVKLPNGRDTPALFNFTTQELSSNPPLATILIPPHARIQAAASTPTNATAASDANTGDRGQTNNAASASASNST

[3] = biological target: T1, DNA repair protein RAD52 homolog (Homo sapiens, UniProt P43351); format: functional, biochemical
T1 sequence (P43351 whole entry): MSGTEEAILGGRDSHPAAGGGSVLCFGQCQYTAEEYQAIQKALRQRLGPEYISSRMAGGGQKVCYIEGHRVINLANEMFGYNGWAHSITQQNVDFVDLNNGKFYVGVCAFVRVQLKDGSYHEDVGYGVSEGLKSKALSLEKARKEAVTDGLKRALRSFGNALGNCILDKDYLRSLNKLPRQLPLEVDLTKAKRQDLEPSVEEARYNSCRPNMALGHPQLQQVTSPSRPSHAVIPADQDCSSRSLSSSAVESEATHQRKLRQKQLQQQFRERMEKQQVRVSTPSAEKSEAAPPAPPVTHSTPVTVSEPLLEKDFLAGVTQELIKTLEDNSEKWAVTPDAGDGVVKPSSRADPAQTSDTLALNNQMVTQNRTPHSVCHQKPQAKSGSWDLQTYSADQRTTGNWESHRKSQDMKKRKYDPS

[4] = biological target: Cyclin-dependent kinase 5/CDK5 activator 1 (Homo sapiens, UniProt Q00535); test: CDK5-p25 kinase inhibition, dose response, selectivity assay for GSK3beta inhibitor project, biochemical, microfluidic mobility shift, dry powder, set 2 (AID 623979); format: functional
Chain of Cyclin-dependent kinase 5/CDK5 activator 1 (Q00535 whole entry): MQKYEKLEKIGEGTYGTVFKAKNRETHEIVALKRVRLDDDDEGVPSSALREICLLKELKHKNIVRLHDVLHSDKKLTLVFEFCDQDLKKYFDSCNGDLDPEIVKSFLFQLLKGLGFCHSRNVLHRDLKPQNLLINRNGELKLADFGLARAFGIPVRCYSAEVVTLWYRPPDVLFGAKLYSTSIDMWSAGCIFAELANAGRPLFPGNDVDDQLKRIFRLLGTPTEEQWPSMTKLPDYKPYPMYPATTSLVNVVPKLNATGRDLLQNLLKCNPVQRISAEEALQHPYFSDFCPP
Chain of Cyclin-dependent kinase 5/CDK5 activator 1 (Q15078 whole entry, further chain): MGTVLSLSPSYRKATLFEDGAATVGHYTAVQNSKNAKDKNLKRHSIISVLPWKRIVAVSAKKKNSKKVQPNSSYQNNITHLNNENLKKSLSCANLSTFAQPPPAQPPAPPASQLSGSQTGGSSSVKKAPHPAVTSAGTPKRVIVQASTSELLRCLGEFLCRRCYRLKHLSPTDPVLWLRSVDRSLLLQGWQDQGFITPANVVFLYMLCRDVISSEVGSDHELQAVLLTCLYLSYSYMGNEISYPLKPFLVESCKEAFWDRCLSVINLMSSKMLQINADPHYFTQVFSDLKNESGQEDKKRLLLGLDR

[5] = biological target: T2, Multidrug resistance protein CDR1 (Candida albicans, UniProt P43071); test: CaCdr1 efflux pump inhibitor potency, dose response, singleplex, Cherry Pick2 set (AID 623996); format: functional; settings: read-out: EC50_MICROM
T2 sequence (P43071 whole entry, looked up): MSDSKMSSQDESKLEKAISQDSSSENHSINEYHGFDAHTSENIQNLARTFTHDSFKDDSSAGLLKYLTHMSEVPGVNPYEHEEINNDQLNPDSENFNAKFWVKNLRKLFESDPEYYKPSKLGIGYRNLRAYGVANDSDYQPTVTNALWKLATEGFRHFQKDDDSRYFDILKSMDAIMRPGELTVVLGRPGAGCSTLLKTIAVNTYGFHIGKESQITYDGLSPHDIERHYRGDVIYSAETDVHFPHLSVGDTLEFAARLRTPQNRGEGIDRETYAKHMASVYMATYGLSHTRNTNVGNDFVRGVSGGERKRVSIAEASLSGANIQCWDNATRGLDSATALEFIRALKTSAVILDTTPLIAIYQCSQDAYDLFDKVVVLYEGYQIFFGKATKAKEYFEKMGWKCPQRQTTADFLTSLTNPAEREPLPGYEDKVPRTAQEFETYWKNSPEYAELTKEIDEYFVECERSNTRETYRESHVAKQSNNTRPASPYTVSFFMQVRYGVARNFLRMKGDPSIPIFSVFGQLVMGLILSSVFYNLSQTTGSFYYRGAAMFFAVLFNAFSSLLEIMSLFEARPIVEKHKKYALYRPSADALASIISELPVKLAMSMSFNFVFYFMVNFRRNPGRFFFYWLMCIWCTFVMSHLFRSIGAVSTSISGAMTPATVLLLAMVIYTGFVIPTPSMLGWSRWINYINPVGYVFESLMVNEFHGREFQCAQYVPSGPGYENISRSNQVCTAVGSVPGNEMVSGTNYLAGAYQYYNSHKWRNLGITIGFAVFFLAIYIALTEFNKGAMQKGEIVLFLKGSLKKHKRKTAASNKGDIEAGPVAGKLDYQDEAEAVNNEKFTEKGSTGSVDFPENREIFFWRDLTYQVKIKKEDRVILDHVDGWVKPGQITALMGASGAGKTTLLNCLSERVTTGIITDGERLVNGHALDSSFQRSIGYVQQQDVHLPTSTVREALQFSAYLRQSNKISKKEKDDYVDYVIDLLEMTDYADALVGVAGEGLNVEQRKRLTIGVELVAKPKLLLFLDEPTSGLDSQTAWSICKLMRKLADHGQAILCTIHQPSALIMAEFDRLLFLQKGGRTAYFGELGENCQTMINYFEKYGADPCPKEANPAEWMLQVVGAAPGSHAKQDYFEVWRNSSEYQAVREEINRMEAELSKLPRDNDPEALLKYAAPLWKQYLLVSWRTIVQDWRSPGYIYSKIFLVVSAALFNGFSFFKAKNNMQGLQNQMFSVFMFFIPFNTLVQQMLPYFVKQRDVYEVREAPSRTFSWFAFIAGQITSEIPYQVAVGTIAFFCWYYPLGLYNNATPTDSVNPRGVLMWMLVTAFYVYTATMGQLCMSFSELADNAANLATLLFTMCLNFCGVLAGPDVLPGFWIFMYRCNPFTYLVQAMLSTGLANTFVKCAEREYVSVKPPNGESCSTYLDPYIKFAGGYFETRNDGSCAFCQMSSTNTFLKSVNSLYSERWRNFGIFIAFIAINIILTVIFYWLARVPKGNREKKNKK

[6] = biological target: T3, Benomyl/methotrexate resistance protein (Candida albicans, UniProt P28873); test: CaMdr1 efflux pump inhibitor potency, dose response, singleplex, Cherry Pick2 set (AID 623992); format: functional; settings: read-out: EC50_MICROM
T3 sequence (P28873 whole entry): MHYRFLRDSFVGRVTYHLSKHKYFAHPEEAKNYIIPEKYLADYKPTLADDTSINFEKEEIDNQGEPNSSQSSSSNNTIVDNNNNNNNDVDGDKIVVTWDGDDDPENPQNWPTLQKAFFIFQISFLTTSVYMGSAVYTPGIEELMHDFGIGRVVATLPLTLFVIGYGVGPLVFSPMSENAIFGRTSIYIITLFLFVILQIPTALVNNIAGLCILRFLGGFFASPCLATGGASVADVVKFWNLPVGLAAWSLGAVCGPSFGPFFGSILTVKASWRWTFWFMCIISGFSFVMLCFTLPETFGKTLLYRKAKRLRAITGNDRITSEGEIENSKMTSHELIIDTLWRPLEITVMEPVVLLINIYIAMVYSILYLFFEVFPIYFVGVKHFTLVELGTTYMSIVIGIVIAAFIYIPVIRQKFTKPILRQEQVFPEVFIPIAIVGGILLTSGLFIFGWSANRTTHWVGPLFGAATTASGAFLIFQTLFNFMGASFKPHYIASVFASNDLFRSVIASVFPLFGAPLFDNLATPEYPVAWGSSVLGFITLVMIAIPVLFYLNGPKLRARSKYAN

[7] = biological target: T2, Multidrug resistance protein CDR1; test: CaCDR1 efflux pump inhibitors in yeast, dose response, S. cerevisiae AD1-8u, singleplex, Cherry Pick1 hits (AID 588606); format: functional
[8] = biological target: T3, Benomyl/methotrexate resistance protein; test: CaMdr1 efflux pump inhibitor potency, dose response, singleplex, Cherry Pick1 hits (AID 588608); format: functional
[9] = THP-1 cell cytotoxicity, cytotoxicity control, set 4 (AID 504911); format: functional; settings: Mycobacterium tuberculosis
[10] = Vero cell cytotoxicity, dose response, cytotoxicity control for M. tuberculosis growth inhibitor project, Vero cells, purified and synthesized compounds, set 5 (AID 504909); format: functional; settings: Mycobacterium tuberculosis
[11] = Vero cell cytotoxicity, dose response, cytotoxicity control for M. tuberculosis growth inhibitor project, Vero cells, purified and synthesized compounds, set 4 (AID 504854); format: functional; settings: Mycobacterium tuberculosis
[12] = biological target: Neuropeptides B/W receptor type 1 (Homo sapiens, UniProt P48145); test: GPR7 antagonist potency, late-stage follow-up, cell-based, fluorescence, dose response, set 6 (AID 588583); format: functional
Chain of Neuropeptides B/W receptor type 1 (P48145 whole entry): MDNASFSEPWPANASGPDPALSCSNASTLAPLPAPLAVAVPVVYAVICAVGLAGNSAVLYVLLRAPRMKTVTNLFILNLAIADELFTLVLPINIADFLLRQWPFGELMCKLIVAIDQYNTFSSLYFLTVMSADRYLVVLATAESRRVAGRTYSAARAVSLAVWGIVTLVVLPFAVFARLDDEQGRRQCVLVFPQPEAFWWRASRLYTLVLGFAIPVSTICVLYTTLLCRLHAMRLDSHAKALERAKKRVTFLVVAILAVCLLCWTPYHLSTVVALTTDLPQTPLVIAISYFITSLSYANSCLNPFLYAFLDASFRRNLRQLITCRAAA

[13] = biological target: Melanin-concentrating hormone receptor 1 (Homo sapiens, UniProt Q99705); test: Late-stage fluorescence-based counterscreen for antagonists of the G-protein coupled receptor 7 (GPR7): cell-based dose response assay to identify antagonists of the melanin-concentrating hormone receptor 1 (MCHR1) Set 6.; format: functional
Chain of Melanin-concentrating hormone receptor 1 (Q99705 whole entry): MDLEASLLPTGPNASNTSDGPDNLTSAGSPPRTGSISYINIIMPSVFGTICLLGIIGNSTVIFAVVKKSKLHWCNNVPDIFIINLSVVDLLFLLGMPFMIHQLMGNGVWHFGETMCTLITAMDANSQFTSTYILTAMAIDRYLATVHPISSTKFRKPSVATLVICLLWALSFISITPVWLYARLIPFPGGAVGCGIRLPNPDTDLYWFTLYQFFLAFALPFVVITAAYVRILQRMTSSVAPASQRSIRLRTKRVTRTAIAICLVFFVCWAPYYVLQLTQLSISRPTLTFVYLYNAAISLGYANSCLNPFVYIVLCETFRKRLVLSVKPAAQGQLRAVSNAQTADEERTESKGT

[14] = biological target: DNA dC->dU-editing enzyme APOBEC-3A (Homo sapiens, UniProt P31941); test: SAR analysis of small molecule inhibitors of APOBEC3A DNA Deaminase via a fluorescence-based single-stranded DNA deaminase assay - Set 2.; format: functional; settings: read-out: IC50_Mean
Chain of DNA dC->dU-editing enzyme APOBEC-3A (P31941 whole entry): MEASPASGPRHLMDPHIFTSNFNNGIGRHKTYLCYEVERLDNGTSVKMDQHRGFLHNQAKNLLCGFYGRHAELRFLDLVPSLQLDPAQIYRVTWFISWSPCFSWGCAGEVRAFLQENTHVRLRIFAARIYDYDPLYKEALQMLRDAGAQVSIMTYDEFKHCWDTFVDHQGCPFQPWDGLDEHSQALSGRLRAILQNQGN

[15] = biological target: DNA dC->dU-editing enzyme APOBEC-3G (Homo sapiens, UniProt Q9HC16); test: SAR analysis of small molecule inhibitors of APOBEC3G DNA Deaminase via a fluorescence-based single-stranded DNA deaminase assay - Set 2.; format: functional; settings: read-out: IC50_Mean
Chain of DNA dC->dU-editing enzyme APOBEC-3G (Q9HC16 whole entry): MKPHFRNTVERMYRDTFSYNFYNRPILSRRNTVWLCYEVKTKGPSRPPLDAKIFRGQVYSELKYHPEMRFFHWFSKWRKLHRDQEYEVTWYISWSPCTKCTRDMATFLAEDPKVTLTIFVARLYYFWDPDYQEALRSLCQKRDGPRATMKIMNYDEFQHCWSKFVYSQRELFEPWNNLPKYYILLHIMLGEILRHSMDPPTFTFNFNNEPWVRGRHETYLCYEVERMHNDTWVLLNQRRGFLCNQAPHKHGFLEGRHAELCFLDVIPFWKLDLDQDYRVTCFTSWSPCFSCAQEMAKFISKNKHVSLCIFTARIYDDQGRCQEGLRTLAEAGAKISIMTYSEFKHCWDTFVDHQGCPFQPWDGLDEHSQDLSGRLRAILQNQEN

Chain of Glycogen synthase kinase-3 alpha (P49840 whole entry): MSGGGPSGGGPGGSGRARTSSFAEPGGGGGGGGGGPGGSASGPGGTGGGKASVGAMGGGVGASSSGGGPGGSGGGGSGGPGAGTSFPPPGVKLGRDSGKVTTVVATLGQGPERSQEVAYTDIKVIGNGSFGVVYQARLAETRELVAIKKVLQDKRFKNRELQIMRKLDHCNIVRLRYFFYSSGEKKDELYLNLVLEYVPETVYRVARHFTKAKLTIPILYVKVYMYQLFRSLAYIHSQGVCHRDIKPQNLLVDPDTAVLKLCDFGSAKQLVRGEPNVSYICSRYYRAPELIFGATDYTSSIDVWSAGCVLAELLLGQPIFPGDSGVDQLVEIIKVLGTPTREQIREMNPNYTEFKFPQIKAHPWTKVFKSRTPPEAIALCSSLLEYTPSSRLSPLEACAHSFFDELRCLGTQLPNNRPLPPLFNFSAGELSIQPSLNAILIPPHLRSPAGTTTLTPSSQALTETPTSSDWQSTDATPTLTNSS

**Q.** Which AC50 [1] does the source give for `COc1cccc(/C=C2/Sc3ccc(C(=O)NCCCN4CCCC4)cc3NC2=O)c1` here?
**A.** 38.9 µM (active)

**Q.** And the AC50 [2]?
**A.** 4.46 µM (active)

**Q.** And the AC50 [3]?
**A.** 4.47 µM (active)

**Q.** And the AC50 [4]?
**A.** 7.91 µM (active)

**Q.** What does the source list for `Cc1noc(C)c1C(=O)N1CCC2(CC1)Oc1ccc(F)cc1C(=O)C21CC(c2ccc(Cl)cc2)=NO1` (stereo not given)?
**A.** EC50 [5]: 26.8 µM (active); EC50 [6]: 16.9 µM (active); EC50 [7]: 11.5 µM (active); EC50 [8]: 15.6 µM (active)

**Q.** Which CC50 [9] does the source give for `Oc1nc(SCc2ccccc2Cl)nc2c1CCCC2` here?
**A.** > 100 µM (active)

**Q.** What about the CC50 [10] of the same molecule?
**A.** > 100 µM (active)

**Q.** And the CC50 [11]?
**A.** > 100 µM (active)

**Q.** With `O=c1c(-c2ccc(F)cc2)c(Br)cnn1Cc1cccc2ccccc12` as the molecule, how does the IC50 [12] read?
**A.** 2.24 µM (active)

**Q.** What about the IC50 [13] of the same molecule?
**A.** 2.24 µM (active)

**Q.** With `CCc1nc2sc3c(c2c2nnc(SC)n12)CCCC3` as the molecule, how does the IC50 [14] read?
**A.** > 99 µM (inactive)

**Q.** And the IC50 [15]?
**A.** > 99 µM (inactive)
